Data reported in US20240199605A1, “SMALL MOLECULAR INHIBITORS OF NF-kB INDUCING KINASE” (Janssen Pharmaceutica NV, priority 2019, published 2024).

Key:
[1] = target: recombinant human NF-kappaB-inducing kinase (NIK/MAP3K14) (Homo sapiens (Human), UniProt Q99558); assay: Inhibition of auto-phosphorylation of recombinant human NIK/MAP3K14 (AlphaScreen); type: biochemical; details: NIK auto-phosphorylation, 5 μM ATP, 1 nM NIK, 2 h at 25° C.; average of values
Summary of the method: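 GST-tagged NIK (1 nM) auto-phosphorylated with 5 μM ATP for 2 h at 25° C. in 50 mM Tris pH 7.5, 5 mM MgCl2, 1 mM EGTA, 1 mM DTT, 0.1 mM Na3VO4, 0.01% Tween 20 (0.7% DMSO). Detected by AlphaScreen via anti-phospho-IKK Ser176/180 antibody; IC50 from sigmoidal fit of % inhibition versus log concentration.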

[2] = tested on: p-IKKα levels in L363 (NIK translocated multiple myeloma) cells; assay: Effect of compounds on p-IKKα levels in L363 cells (AlphaLISA SureFire Ultra); type: cell-based, human; details: Homo sapiens, L-363, 6 h, BAFF stimulated, MG132, 6 h, average of values, read-out: Assay 2 IC50
Summary of the method: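 Inhibition of p-IKKα (Ser176/180) read by AlphaLISA after 6 h, 37 °C compound exposure (11-point 1:3 series, 0.3% DMSO) of L363 cells pre-incubated overnight ± 250 ng/ml BAFF and plated ± BAFF ± 10 μM MG132. Normalised to BAFF/MG132/DMSO and unstimulated controls; IC50 by sigmoidal fitting, duplicates.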

recombinant human NF-kappaB-inducing kinase (NIK/MAP3K14), sequence (Q99558 whole entry): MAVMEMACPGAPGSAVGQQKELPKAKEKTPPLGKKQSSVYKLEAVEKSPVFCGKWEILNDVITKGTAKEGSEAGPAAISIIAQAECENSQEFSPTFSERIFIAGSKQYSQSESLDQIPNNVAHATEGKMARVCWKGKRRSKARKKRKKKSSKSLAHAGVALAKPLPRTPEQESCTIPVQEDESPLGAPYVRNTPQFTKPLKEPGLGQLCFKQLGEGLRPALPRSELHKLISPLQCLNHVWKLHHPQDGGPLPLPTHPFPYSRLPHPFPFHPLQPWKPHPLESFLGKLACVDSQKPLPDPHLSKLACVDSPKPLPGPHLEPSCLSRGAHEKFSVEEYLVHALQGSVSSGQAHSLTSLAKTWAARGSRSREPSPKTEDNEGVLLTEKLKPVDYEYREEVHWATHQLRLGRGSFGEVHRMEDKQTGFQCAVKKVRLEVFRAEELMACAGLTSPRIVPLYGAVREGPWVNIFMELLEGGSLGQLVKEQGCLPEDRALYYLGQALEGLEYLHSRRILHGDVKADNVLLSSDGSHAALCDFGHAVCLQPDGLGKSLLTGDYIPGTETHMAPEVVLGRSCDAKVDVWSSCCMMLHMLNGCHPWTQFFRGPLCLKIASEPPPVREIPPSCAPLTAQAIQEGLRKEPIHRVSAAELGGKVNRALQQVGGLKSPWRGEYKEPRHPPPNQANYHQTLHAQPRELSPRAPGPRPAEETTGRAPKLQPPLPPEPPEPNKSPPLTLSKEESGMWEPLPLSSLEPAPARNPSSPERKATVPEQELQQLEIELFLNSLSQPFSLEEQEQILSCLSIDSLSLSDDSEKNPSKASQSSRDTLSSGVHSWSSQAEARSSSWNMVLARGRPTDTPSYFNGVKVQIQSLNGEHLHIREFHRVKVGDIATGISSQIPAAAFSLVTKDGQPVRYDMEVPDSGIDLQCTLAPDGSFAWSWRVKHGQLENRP

SMILES	IC50 [1] [nM]	IC50 [2] [nM]
Cc1cc(C#C[C@]2(O)CCN(C)C2=O)cc(-c2ncc3c(C)cnc(N)c3n2)c1 [Example 76, (R)-3-[2-[3-(8-Amino-5-methyl-pyrido[3,4-d]pyrimidin-2-yl)-5-methyl-phenyl]ethynyl]-3-hydroxy-1-methyl-pyrrolidin-2-one]	2.3	66
Cc1ccc(C#C[C@]2(O)CCN(CC(F)(F)F)C2=O)cc1-c1ccc2ccnc(N)c2c1 [Example 77, (R)-3-[2-[3-(1-Amino-7-isoquinolyl)-4-methyl-phenyl]ethynyl]-3-hydroxy-1-(2,2,2-trifluoroethyl)pyrrolidin-2-one]	> 5000	> 5000
Cc1nnc([C@](C)(O)C#Cc2ccc(C)c(-c3ccc4ccnc(N)c4c3)c2)o1 [Example 78, (R)-4-[3-(1-Amino-7-isoquinolyl)-4-methyl-phenyl]-2-(5-methyl-1,3,4-oxadiazol-2-yl)but-3-yn-2-ol]	840	> 5000
Cc1cc([C@](C)(O)C#Cc2ccc(C)c(-c3ccc4ccnc(N)c4c3)c2)no1 [Example 79, (R)-4-[3-(1-Amino-7-isoquinolyl)-4-methyl-phenyl]-2-(5-methylisoxazol-3-yl)but-3-yn-2-ol]	590	> 5000
Cc1ccc(C#C[C@]2(O)CCc3cccnc32)cc1-c1ccc2ccnc(N)c2c1 [Example 80, (R)-7-[2-[3-(1-Amino-7-isoquinolyl)-4-methyl-phenyl]ethynyl]-5,6-dihydrocyclopenta[b]pyridin-7-ol]	28	4000
Cc1ccc(C#C[C@]2(O)CCn3ccnc32)cc1-c1ccc2ccnc(N)c2c1 [Example 81, (R)-7-[2-[3-(1-Amino-7-isoquinolyl)-4-methyl-phenyl]ethynyl]-5,6-dihydropyrrolo[1,2-a]imidazol-7-ol]	11	1980
Cc1cc([C@](C)(O)C#Cc2ccc(C)c(-c3ncc4ccnc(N)c4n3)c2)no1 [Example 82, (R)-4-(3-(8-Aminopyrido[3,4-d]pyrimidin-2-yl)-4-methylphenyl)-2-(5-methylisoxazol-3-yl)but-3-yn-2-ol]	31	2000
[2H]C([2H])([2H])N1CC[C@@](O)(C#Cc2cccc(-c3nc(C)c4ccnc(N)c4n3)c2)C1=O [Example 83, (R)-3-((3-(8-Amino-4-methylpyrido[3,4-d]pyrimidin-2-yl)phenyl)ethynyl)-3-hydroxy-1-(methyl-da)pyrrolidin-2-one]	≤ 0.5	3.2
Cc1nc(-c2cccc(C#C[C@]3(O)CCn4ccnc43)c2)nc2c(N)nccc12 [Example 84, (R)-7-((3-(8-Amino-4-methylpyrido[3,4-d]pyrimidin-2-yl)phenyl)ethynyl)-6,7-dihydro-5H-pyrrolo[1,2-a]imidazol-7-ol]	≤ 0.5	5.5
CNc1nc(-c2cccc(C#C[C@]3(O)CCN(C)C3=O)c2)nc2c(N)nccc12 [Example 85, (R)-3-((3-(8-Amino-4-(methylamino)pyrido[3,4-d]pyrimidin-2-yl)phenyl)ethynyl)-3-hydroxy-1-methylpyrrolidin-2-one]	0.7	6.1
Cc1cnc(N)c2nc(-c3cccc(C#C[C@]4(O)CCn5ccnc54)c3)ncc12 [Example 86, (R)-7-[2-[3-(8-Amino-5-methyl-pyrido[3,4-d]pyrimidin-2-yl)phenyl]ethynyl]-5,6-dihydropyrrolo[1,2-a]imidazol-7-ol]	≤ 0.5	7.7
Cc1nnc([C@](C)(O)C#Cc2cccc(-c3ccc4ccnc(N)c4n3)c2)o1 [Example 88, (R)-4-[3-(8-Amino-1,7-naphthyridin-2-yl)phenyl]-2-(5-methyl-1,3,4-oxadiazol-2-yl)but-3-yn-2-ol]	4.7	400
Cc1cc([C@](C)(O)C#Cc2cccc(-c3ccc4ccnc(N)c4n3)c2)no1 [Example 89, (R)-4-[3-(8-Amino-1,7-naphthyridin-2-yl)phenyl]-2-(5-methylisoxazol-3-yl)but-3-yn-2-ol]	2.3	590
C[C@@](O)(C#Cc1cccc(-c2ccc3ccnc(N)c3n2)c1)c1nccs1 [Example 90, (R)-4-[3-(8-Amino-1,7-naphthyridin-2-yl)phenyl]-2-thiazol-2-yl-but-3-yn-2-ol]	≤ 0.5	70
Cc1nc(-c2cccc(C#C[C@]3(O)CCN(CC(F)(F)F)C3=O)c2)nc2c(N)nccc12 [Example 92, (R)-3-[2-[3-(8-Amino-4-methyl-pyrido[3,4-d]pyrimidin-2-yl)phenyl]ethynyl]-3-hydroxy-1-(2,2,2-trifluoroethyl)pyrrolidin-2-one]	6.6	480
C[C@@](O)(C#Cc1cccc(-c2ccc3ncnc(N)c3n2)c1)c1nccs1 [Example 93, (R)-4-(3-(4-Aminopyrido[3,2-d]pyrimidin-6-yl)phenyl)-2-(thiazol-2-yl)but-3-yn-2-ol]	≤ 0.5	6.5

SMILES	IC50 [1] [nM]	IC50 [2] [nM]
CN1CC[C@@](O)(C#Cc2cccc(-c3ncc4c(Br)cnc(N)c4n3)c2)C1=O [Example 94, (R)-3-((3-(8-Amino-5-bromopyrido[3,4-d]pyrimidin-2-yl)phenyl)ethynyl)-3-hydroxy-1-methylpyrrolidin-2-one]	≤ 0.5	4.2
Cc1cc([C@](C)(O)C#Cc2cccc(-c3ccc4ncnc(N)c4n3)c2)no1 [Example 95, (R)-4-(3-(4-Aminopyrido[3,2-d]pyrimidin-6-yl)phenyl)-2-(5-methylisoxazol-3-yl)but-3-yn-2-ol]	0.8	28
CN1CC[C@@](O)(C#Cc2cccc(-c3ccc4cnnc(N)c4c3)c2)C1=O [Example 96, (R)-3-[2-[3-(4-Aminophthalazin-6-yl)phenyl]ethynyl]-3-hydroxy-1-methyl-pyrrolidin-2-one]	29	> 5000
Cc1nnc([C@](C)(O)C#Cc2cccc(-c3ccc4ncnc(N)c4n3)c2)o1 [Example 97, (R)-4-(3-(4-Aminopyrido[3,2-d]pyrimidin-6-yl)phenyl)-2-(5-methyl-1,3,4-oxadiazol-2-yl)but-3-yn-2-ol]	0.8	46
CC(C)c1nc(-c2cccc(C#C[C@]3(O)CCN(C)C3=O)c2)nc2c(N)nccc12 [Example 98, (R)-3-((3-(8-Amino-4-isopropylpyrido[3,4-d]pyrimidin-2-yl)phenyl)ethynyl)-3-hydroxy-1-methylpyrrolidin-2-one]	1.5	38
CN1CC[C@@](O)(C#Cc2cccc(-c3ncc4c(C(F)(F)F)cnc(N)c4n3)c2)C1=O [Example 99, (R)-3-[2-[3-[8-Amino-5-(trifluoromethyl)pyrido[3,4-d]pyrimidin-2-yl]phenyl]ethynyl]-3-hydroxy-1-methyl-pyrrolidin-2-one]	≤ 0.5	12
CN1CC[C@@](O)(C#Cc2cccc(-c3ncc4c(C#N)cnc(N)c4n3)c2)C1=O [Example 100, (R)-8-Amino-2-(3-((3-hydroxy-1-methyl-2-oxopyrrolidin-3-yl)ethynyl)phenyl)pyrido[3,4-d]pyrimidine-5-carbonitrile]	≤ 0.5	6.1
CN1CC[C@@](O)(C#Cc2cccc(-c3nc4c(N)ncnc4s3)c2)C1=O [Example 101, (R)-3-((3-(7-Aminothiazolo[5,4-d]pyrimidin-2-yl)phenyl)ethynyl)-3-hydroxy-1-methylpyrrolidin-2-one]	1.2	26
CN1CC[C@@](O)(C#Cc2cccc(-c3ncc4c(I)cnc(N)c4n3)c2)C1=O [Example 102, (R)-3-((3-(8-Amino-5-iodopyrido[3,4-d]pyrimidin-2-yl)phenyl)ethynyl)-3-hydroxy-1-methylpyrrolidin-2-one]	≤ 0.5	11
CN1CC[C@@](O)(C#Cc2cccc(-c3ncc4c(Cl)cnc(N)c4n3)c2)C1=O [Example 103, (R)-3-((3-(8-Amino-5-chloropyrido[3,4-d]pyrimidin-2-yl)phenyl)ethynyl)-3-hydroxy-1-methylpyrrolidin-2-one]	≤ 0.5	5.8
Cc1cc([C@](C)(O)C#Cc2cccc(-c3ccc4ncnc(N)c4c3)c2)no1 [Example 104, (R)-4-[3-(4-Aminoquinazolin-6-yl)phenyl]-2-(5-methylisoxazol-3-yl)but-3-yn-2-ol]	1.3	280
C[C@@](O)(C#Cc1cccc(-c2ccc3ncnc(N)c3c2)c1)c1nccs1 [Example 105, (R)-4-[3-(4-Aminoquinazolin-6-yl)phenyl]-2-thiazol-2-yl-but-3-yn-2-ol]	0.6	64
Cc1nnc([C@](C)(O)C#Cc2cccc(-c3ccc4ncnc(N)c4c3)c2)o1 [Example 106, (R)-4-[3-(4-Aminoquinazolin-6-yl)phenyl]-2-(5-methyl-1,3,4-oxadiazol-2-yl)but-3-yn-2-ol]	14	1450
Cc1nc(-c2cccc(C#Cc3ccn[nH]3)c2)nc2c(N)nccc12 [Example 107, 2-(3-((1H-Pyrazol-5-yl)ethynyl)phenyl)-4-methylpyrido[3,4-d]pyrimidin-8-amine]	52	> 5000
C[C@@](O)(C#Cc1cccc(-c2cnc3ncnc(N)c3c2)c1)c1nccs1 [Example 108, (R)-4-(3-(4-Aminopyrido[2,3-d]pyrimidin-6-yl)phenyl)-2-(thiazol-2-yl)but-3-yn-2-ol]	7.6	> 5000
